# Source: patent publication US10597388B2, “Pyridazinone herbicides” (FMC CORPORATION, priority 2014, dated 2020)
# Like-named read-outs stand apart in the source and are kept apart here.
# Key:
# Assay type in all cases: in vivo
# [1] = test system: barnyardgrass (Echinochloa crus-galli); assay: Test A greenhouse herbicide test, pre- and postemergence; conditions: for pest or weed control at 125 g/ha / pest or weed control at 500 g/ha: Echinochloa crus-galli, 240 h; for pest or weed control at 500 g/ha: 0 to 100 scale
# Summary of the method: (§1)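 Visual injury ratings, 0 (no effect) to 100 (complete control), versus untreated plants after roughly 10 d in a greenhouse. Compounds, formulated in a surfactant-containing non-phytotoxic solvent, were sprayed on loam–sand soil after sowing (pre) or on one- to two-leaf plants 2–10 cm tall (post).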
# kochia (Kochia scoparia) [2] = assay: as above; conditions: for pest or weed control at 125 g/ha / pest or weed control at 500 g/ha: Bassia scoparia, 240 h; for pest or weed control at 500 g/ha: 0 to 100 scale
# Summary of the method: as §1
# [3] = test system: pigweed (Amaranthus retroflexus); assay: as above; conditions: for pest or weed control at 125 g/ha / pest or weed control at 500 g/ha: Amaranthus retroflexus, 240 h; for pest or weed control at 500 g/ha: 0 to 100 scale
# Summary of the method: as §1
# [4] = test system: ragweed (common ragweed, Ambrosia elatior); assay: as above; conditions: for pest or weed control at 125 g/ha / pest or weed control at 500 g/ha: Ambrosia artemisiifolia, 240 h; for pest or weed control at 500 g/ha: 0 to 100 scale
# Summary of the method: as §1
# [5] = test system: barnyardgrass (Echinochloa crus-galli); assay: Test B flooded paddy test; conditions: 250 g ai/ha, Flood, visual rating on scale of 0 to 100 where 0 is no effect and 100 is complete control, 13 to 15 d after treatment; for pest or weed control at 250 g/ha: Echinochloa crus-galli, 360 h, read-out: Plant response rating, Barnyardgrass
# Summary of the method: (§2)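 Ratings use a 0-100 visual scale, where 100 is complete control, and compare treated plants with controls after 13 to 15 d of greenhouse growth. Compound went straight into paddy water kept 3 cm over the soil surface, applied to seedlings at the 2-leaf stage.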
# [6] = test system: ducksalad (Heteranthera limosa); assay: Test B flooded paddy test; conditions: 250 g ai/ha, Flood, visual rating on scale of 0 to 100 where 0 is no effect and 100 is complete control, 13 to 15 d after treatment; for pest or weed control at 250 g/ha: Heteranthera limosa, 360 h, read-out: Plant response rating, Ducksalad
# Summary of the method: as §2
# rice (Oryza sativa) = assay: Test B flooded paddy test; conditions: 250 g ai/ha, Flood, visual rating on scale of 0 to 100 where 0 is no effect and 100 is complete control, 13 to 15 d after treatment; for plant injury at 250 g/ha: Oryza sativa, 360 h, read-out: Plant response rating, Rice
# Summary of the method: as §2
# [7] = test system: sedge, umbrella (small-flower umbrella sedge, Cyperus difformis); assay: Test B flooded paddy test; conditions: 250 g ai/ha, Flood, visual rating on scale of 0 to 100 where 0 is no effect and 100 is complete control, 13 to 15 d after treatment; for pest or weed control at 250 g/ha: Cyperus difformis, 360 h, read-out: Plant response rating, Sedge, Umbrella
# Summary of the method: as §2
# kochia (Kochia scoparia) [8] = assay: Test C greenhouse herbicide test, postemergence
# Summary of the method: (§3)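 Postemergence foliar treatment, 1- to 4-leaf stage (2–18 cm), peat/vermiculite medium; greenhouse 13–15 d; visual rating vs controls, 0 = no effect, 100 = complete control; dash = no result.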
# [9] = test system: oat, wild (wild oat, Avena fatua); assay: Test C greenhouse herbicide test, postemergence
# Summary of the method: as §3
# [10] = Postemergence, 125 g ai/ha, 0 to 100 scale where 0 is no effect and 100 is complete control
# [11] = Postemergence, 500 g ai/ha, visual rating after approx. 10 d, 0 to 100 scale (0 no effect, 100 complete control)
# [12] = Preemergence, 125 g ai/ha, 0 to 100 scale where 0 is no effect and 100 is complete control
# [13] = Preemergence, 500 g ai/ha, 0 to 100 scale where 0 is no effect and 100 is complete control
# [14] = Postemergence, 31 g ai/ha, scale 0 to 100 (0 no effect, 100 complete control)
# [15] = Postemergence, 62 g ai/ha, 0 to 100 scale (0 no effect, 100 complete control)
# [16] = Postemergence, 250 g ai/ha, scale 0 to 100, 0 no effect, 100 complete control, 13 to 15 d
# [17] = postemergence, 125 g ai/ha, scale 0 to 100, 0 no effect, 100 complete control
# [18] = post-emergence, Postemergence, 125 g ai/ha, visual rating after approx. 10 d, 0 to 100 scale (0 no effect, 100 complete control), read-out: Plant response rating, Barnyardgrass
# [19] = post-emergence, Postemergence, 500 g ai/ha, 0 is no effect, 100 is complete control, read-out: Barnyardgrass plant response rating
# [20] = pre-emergence, Preemergence, 125 g ai/ha, 0 to 100 scale where 0 is no effect and 100 is complete control, read-out: Barnyardgrass plant response rating
# [21] = pre-emergence, Preemergence, 500 g ai/ha, 0 no effect, 100 complete control, read-out: Plant response rating, Barnyardgrass
# [22] = post-emergence, Postemergence, 125 g ai/ha, visual rating after approx. 10 d, 0 to 100 scale (0 no effect, 100 complete control), read-out: Plant response rating, Kochia
# [23] = post-emergence, Postemergence, 500 g ai/ha, 0 is no effect, 100 is complete control, read-out: Kochia plant response rating
# [24] = pre-emergence, Preemergence, 125 g ai/ha, 0 to 100 scale where 0 is no effect and 100 is complete control, read-out: Kochia plant response rating
# [25] = pre-emergence, Preemergence, 500 g ai/ha, 0 no effect, 100 complete control, read-out: Plant response rating, Kochia
# [26] = post-emergence, Postemergence, 125 g ai/ha, visual rating after approx. 10 d, 0 to 100 scale (0 no effect, 100 complete control), read-out: Plant response rating, Pigweed
# [27] = post-emergence, Postemergence, 500 g ai/ha, 0 is no effect, 100 is complete control, read-out: Pigweed plant response rating
# [28] = pre-emergence, Preemergence, 125 g ai/ha, 0 to 100 scale where 0 is no effect and 100 is complete control, read-out: Pigweed plant response rating
# [29] = pre-emergence, Preemergence, 500 g ai/ha, 0 no effect, 100 complete control, read-out: Plant response rating, Pigweed
# [30] = post-emergence, Postemergence, 125 g ai/ha, visual rating after approx. 10 d, 0 to 100 scale (0 no effect, 100 complete control), read-out: Plant response rating, Ragweed
# [31] = post-emergence, Postemergence, 500 g ai/ha, 0 is no effect, 100 is complete control, read-out: Ragweed plant response rating
# [32] = pre-emergence, Preemergence, 125 g ai/ha, 0 to 100 scale where 0 is no effect and 100 is complete control, read-out: Ragweed plant response rating
# [33] = pre-emergence, Preemergence, 500 g ai/ha, 0 no effect, 100 complete control, read-out: Plant response rating, Ragweed
smiles,measurement,setting,value
COC(=O)Oc1c(C)nn(C)c(=O)c1-c1ccc(Br)c2ccccc12 [Compound 145],"Plant response rating, Barnyardgrass",[1]; [10],20
same,"Plant response rating, Barnyardgrass",[1]; [11],90
same,Barnyardgrass plant response rating,[1]; [12],20
same,"Plant response rating, Barnyardgrass",[1]; [13],90
same,"Plant response rating, Kochia",kochia (Kochia scoparia) [2]; [10],100
same,"Plant response rating, Kochia",kochia (Kochia scoparia) [2]; [11],100
same,Kochia plant response rating,kochia (Kochia scoparia) [2]; [12],90
same,"Plant response rating, Kochia",kochia (Kochia scoparia) [2]; [13],100
same,"Plant response rating, Pigweed",[3]; [10],100
same,"Plant response rating, Pigweed",[3]; [11],100
same,Pigweed plant response rating,[3]; [12],90
same,"Plant response rating, Pigweed",[3]; [13],100
same,"Plant response rating, Ragweed",[4]; [10],100
same,"Plant response rating, Ragweed",[4]; [11],100
same,"Plant response rating, Ragweed",[4]; [13],100
same,"Plant response rating, Barnyardgrass",[5],0
same,"Plant response rating, Ducksalad",[6],0
same,"Plant response rating, Rice",rice (Oryza sativa),0
same,"Plant response rating, Sedge, Umbrella",[7],0
same,"Plant response rating, Kochia",kochia (Kochia scoparia) [8]; [14],95
same,Kochia plant response rating,kochia (Kochia scoparia) [8]; [15],98
same,"Plant response rating, Kochia",kochia (Kochia scoparia) [8]; [16],100
same,Kochia plant response rating,kochia (Kochia scoparia) [8]; [17],100
same,"Plant response rating, Oat, Wild",[9]; [14],95
same,"Oat, Wild plant response rating",[9]; [15],95
same,"Plant response rating, Oat, Wild",[9]; [16],100
same,"Oat, Wild plant response rating",[9]; [17],95
Cc1nn(C)c(=O)c(-c2ccc(Cl)c3ccccc23)c1O [Compound 139],"Plant response rating, Barnyardgrass",[1]; [10],20
same,"Plant response rating, Barnyardgrass",[1]; [11],100
same,Barnyardgrass plant response rating,[1]; [12],20
same,"Plant response rating, Barnyardgrass",[1]; [13],100
same,"Plant response rating, Kochia",kochia (Kochia scoparia) [2]; [10],100
same,"Plant response rating, Kochia",kochia (Kochia scoparia) [2]; [11],100
same,Kochia plant response rating,kochia (Kochia scoparia) [2]; [12],100
same,"Plant response rating, Kochia",kochia (Kochia scoparia) [2]; [13],100
same,"Plant response rating, Pigweed",[3]; [10],60
same,"Plant response rating, Pigweed",[3]; [11],100
same,Pigweed plant response rating,[3]; [12],100
same,"Plant response rating, Pigweed",[3]; [13],100
same,"Plant response rating, Ragweed",[4]; [10],100
same,"Plant response rating, Ragweed",[4]; [11],100
same,"Plant response rating, Ragweed",[4]; [13],100
same,"Plant response rating, Barnyardgrass",[5],0
same,"Plant response rating, Ducksalad",[6],0
same,"Plant response rating, Rice",rice (Oryza sativa),0
same,"Plant response rating, Sedge, Umbrella",[7],0
same,"Plant response rating, Kochia",kochia (Kochia scoparia) [8]; [14],95
same,Kochia plant response rating,kochia (Kochia scoparia) [8]; [15],100
same,"Plant response rating, Kochia",kochia (Kochia scoparia) [8]; [16],100
same,Kochia plant response rating,kochia (Kochia scoparia) [8]; [17],100
same,"Plant response rating, Oat, Wild",[9]; [14],90
same,"Oat, Wild plant response rating",[9]; [15],90
same,"Plant response rating, Oat, Wild",[9]; [16],90
same,"Oat, Wild plant response rating",[9]; [17],90
"Cc1cc(C)c2oc(C)c(-c3c(OC(=O)C(C)(C)C)c(C)nn(C)c3=O)c2c1 [Compound 18, 1,6-dihydro-1,3-dimethyl-6-oxo-5-(2,5,7-trimethyl-3-benzofuranyl)-4-pyridazinyl 2,2-dimethylpropanoate]",pest or weed control at 125 g/ha,[1]; [18],0%
same,pest or weed control at 500 g/ha,[1]; [19],40%
same,pest or weed control at 125 g/ha,[1]; [20],0%
same,pest or weed control at 500 g/ha,[1]; [21],0%
same,pest or weed control at 125 g/ha,kochia (Kochia scoparia) [2]; [22],0%
same,pest or weed control at 500 g/ha,kochia (Kochia scoparia) [2]; [23],0%
same,pest or weed control at 125 g/ha,kochia (Kochia scoparia) [2]; [24],0%
same,pest or weed control at 500 g/ha,kochia (Kochia scoparia) [2]; [25],0%
same,pest or weed control at 125 g/ha,[3]; [26],0%
same,pest or weed control at 500 g/ha,[3]; [27],0%
same,pest or weed control at 125 g/ha,[3]; [28],0%
same,pest or weed control at 500 g/ha,[3]; [29],0%
same,pest or weed control at 125 g/ha,[4]; [30],0%
same,pest or weed control at 500 g/ha,[4]; [31],0%
same,pest or weed control at 125 g/ha,[4]; [32],0%
same,pest or weed control at 500 g/ha,[4]; [33],0%
same,pest or weed control at 250 g/ha,[5],0%
same,pest or weed control at 250 g/ha,[6],30%
same,plant injury at 250 g/ha,rice (Oryza sativa),0%
same,pest or weed control at 250 g/ha,[7],0%
"Cc1ccc2oc(C)c(-c3c(OC(=O)C(C)(C)C)c(C)nn(C)c3=O)c2c1 [Compound 17, 5-(2,5-dimethyl-3-benzofuranyl)-1,6-dihydro-1,3-dimethyl-6-oxo-4-pyridazinyl 2,2-dimethylpropanoate]",pest or weed control at 125 g/ha,[1]; [18],0%
same,pest or weed control at 500 g/ha,[1]; [19],0%
same,pest or weed control at 125 g/ha,[1]; [20],0%
same,pest or weed control at 500 g/ha,[1]; [21],0%
same,pest or weed control at 125 g/ha,kochia (Kochia scoparia) [2]; [22],0%
same,pest or weed control at 500 g/ha,kochia (Kochia scoparia) [2]; [23],0%
same,pest or weed control at 125 g/ha,kochia (Kochia scoparia) [2]; [24],0%
same,pest or weed control at 500 g/ha,kochia (Kochia scoparia) [2]; [25],0%
same,pest or weed control at 125 g/ha,[3]; [26],0%
same,pest or weed control at 500 g/ha,[3]; [27],0%
same,pest or weed control at 125 g/ha,[3]; [28],0%
same,pest or weed control at 500 g/ha,[3]; [29],0%
same,pest or weed control at 125 g/ha,[4]; [30],0%
same,pest or weed control at 500 g/ha,[4]; [31],0%
same,pest or weed control at 125 g/ha,[4]; [32],0%
same,pest or weed control at 500 g/ha,[4]; [33],10%
same,pest or weed control at 250 g/ha,[5],0%
same,pest or weed control at 250 g/ha,[6],0%
same,plant injury at 250 g/ha,rice (Oryza sativa),0%
same,pest or weed control at 250 g/ha,[7],0%
